# Data reported in patent publication US20030190344A1, “Animal feed or feed additive as performance enhancer or appetite enhancer for live stock” (priority 2000, published 2003).
# Tested on: aromatic aminoacid-decarboxylase
# Assay: Blockade of aromatic aminoacid-decarboxylase activity
# Type: biochemical
# Excerpt: This blockade of the aromatic aminoacid-decarboxylase is irreversible and thus is of special interest since it is maintained as long as the enzyme molecules are in the effective range of the benzophenanthridine alkaloids. Sanguinarine and chelerythrine, representative of the benzophenanthridine alkaloids, have an aromatic structure which is similar to that of the aromatic amino acids. The enzyme “aromatic aminoacid-decarboxylase” confuses the ultimate structure of the benzophenanthridine alkaloid with the ring structure of the aromatic amino acid and fits it rather than the amino acids at its active center.
smiles,measurement,value
COc1ccc2c(c[n+](C)c3c4cc5c(cc4ccc23)OCO5)c1OC [chelerythrine],block the activity of the aromatic aminoacid-decarboxylase,92%
same,reversibility of blockade of the aromatic aminoacid-decarboxylase,irreversible
